Data reported in patent publication US10894798B2, “Substituted dihydropyrrolopyrazole derivative” (UBE INDUSTRIES, LTD., priority 2015, dated 2021).

Columns and labels:
PLK1 = target: T1, PLK1 (Homo sapiens, UniProt P53350); test: PLK1 enzyme (polo-like kinase) inhibition test; assay type: biochemical; conditions: [γ-33P]ATP, casein substrate; Ki=IC50/(1+S/Km); read-out: Ki value of PLK1 inhibitory activity
T1 construct: purchased Carna Biosciences, Inc. 05-157
Experimental: The preparation of a buffer solution was performed by mixing a 3-morpholinopropanesulfonic acid buffer solution (MOPS buffer solution) (pH 7.0), dithiothreitol (DTT), and magnesium acetate (Mg(CH3COO)2). A 1 mM [γ-^33P]ATP solution was used by diluting a 10 mM ATP solution and a commercially available [γ-^33P]ATP solution (manufactured by Perkin Elmer, Inc., Code No. NEG-302H) with the buffer solution. A PLK1 solution was used by diluting commercially available PLK1 (manufactured by Carna Biosciences, Inc., Catalog No. 05-157) with the buffer solution. A substrate solution was used by diluting casein with the buffer solution. As for the preparation of a reaction solution, the buffer solution, the 500 μM [γ-^33P]ATP solution, the PLK1 solution, and the substrate solution were mixed at 4° C. to obtain a reaction solution.
(§1) PLK1 enzyme reaction was performed by adding 5 μL of a test compound solution prepared with 10% DMSO/90% injectable distilled water, and 45 μL of the reaction solution in a 1.5 mL microtube at 4° C. and reacting in the microtube at 30° C. for 20 minutes in a water bath incubator. After the reaction, a 10% aqueous trichloroacetic acid (TCA) solution was added to each microtube while cooled to 4° C., and mixed in a vortex mixer to terminate the reaction. The resultant was left standing at 4° C. for 10 minutes and then centrifuged, and the supernatant was discarded. Next, a 2% aqueous trichloroacetic acid (TCA) solution was added thereto, mixed in a vortex mixer, and then centrifuged, and the supernatant was discarded. This washing operation was performed twice. After the washing, precipitates were dissolved in a 1 N aqueous sodium hydroxide (NaOH) solution, and the energy quantity (radioactivity) of the reaction product was measured with a liquid scintillation counter.
The calculation of the inhibitory activity of the test compound against PLK1 was performed as a test compound concentration inhibiting 50% of the amount of ^33P bound to casein (IC50 value) by using EXSUS (version 8.1.0, manufactured by CAC Exicare Corp.).
(§2) The calculation of a Ki value was performed according to the following calculation expression wherein S represents the concentration of ATP contained in the reaction solution, and Km represents a Michaelis-Menten constant: Ki=IC50/(1+S/Km)

CDK2 = target: T2, CDK2 (Homo sapiens, UniProt P24941); test: CDK2 enzyme inhibition test; assay type: biochemical; conditions: [γ-33P]ATP, MBP substrate; Ki=IC50/(1+S/Km); read-out: Ki value of CDK2 inhibitory activity
T2 construct: purchased Invitrogen Corp. PV3267
Experimental: (§3) The preparation of a buffer solution was performed by mixing a N-2-hydroxyethylpiperazine-N′-2-ethanesulfonic acid buffer solution (HEPES buffer solution) (pH 7.4), dithiothreitol (DTT), Triton X-100, and magnesium chloride (MgCl2). A 500 μM [γ-^33P]ATP solution was used by diluting a 10 mM ATP solution and a commercially available [γ-^33P]ATP solution (manufactured by Perkin Elmer, Inc., Code No. NEG-302H) with the buffer solution. A CDK2 solution was used by diluting commercially available CDK2 (manufactured by Invitrogen Corp., Catalog No. PV3267) with the buffer solution. A substrate solution was used by diluting myelin basic protein (MBP) with the buffer solution. As for the preparation of a reaction solution, the buffer solution, the 500 μM [γ-^33P]ATP solution, the CDK2 solution, and the substrate solution were mixed at 4° C. to obtain a reaction solution.
as §1, with “CDK2 enzyme reaction” for “PLK1 enzyme reaction”, “mixed in vortex mixer,” for “mixed in a vortex mixer,”
The calculation of the inhibitory activity of the test compound against CDK2 was performed as a test compound concentration inhibiting 50% of the amount of ^33P bound to MBP (IC50 value) by using EXSUS (version 8.1.0, manufactured by CAC Exicare Corp.).
as §2

CDK7 = target: T3, CDK7 (Homo sapiens, UniProt P50613); test: CDK7 enzyme inhibition test; assay type: biochemical; conditions: [γ-33P]ATP, MBP substrate, 60 min preincubation at 25°C; Ki=IC50/(1+S/Km); read-out: Ki value of CDK7 inhibitory activity
T3 construct: purchased Carna Biosciences, Inc. 04-108
T3 sequence (P50613 whole entry): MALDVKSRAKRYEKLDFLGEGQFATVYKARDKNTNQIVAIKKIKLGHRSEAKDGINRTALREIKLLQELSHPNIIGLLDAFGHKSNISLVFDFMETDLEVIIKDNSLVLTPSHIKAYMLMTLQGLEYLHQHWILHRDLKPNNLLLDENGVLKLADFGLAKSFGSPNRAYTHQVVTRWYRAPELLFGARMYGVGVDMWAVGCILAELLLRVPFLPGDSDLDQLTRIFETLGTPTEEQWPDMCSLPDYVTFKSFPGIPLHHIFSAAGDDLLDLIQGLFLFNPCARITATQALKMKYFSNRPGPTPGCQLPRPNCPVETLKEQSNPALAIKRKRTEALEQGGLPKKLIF
T3 sequence (P51946 whole entry partner): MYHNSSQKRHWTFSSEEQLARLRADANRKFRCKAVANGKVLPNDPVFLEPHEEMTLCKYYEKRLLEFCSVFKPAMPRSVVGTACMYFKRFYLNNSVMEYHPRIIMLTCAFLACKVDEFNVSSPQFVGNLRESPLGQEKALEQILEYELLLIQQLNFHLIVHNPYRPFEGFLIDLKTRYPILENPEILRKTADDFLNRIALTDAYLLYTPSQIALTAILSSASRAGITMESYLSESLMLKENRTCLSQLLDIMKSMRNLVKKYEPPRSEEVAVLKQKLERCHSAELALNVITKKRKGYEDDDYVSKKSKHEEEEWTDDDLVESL
T3 sequence (P51948 whole entry partner): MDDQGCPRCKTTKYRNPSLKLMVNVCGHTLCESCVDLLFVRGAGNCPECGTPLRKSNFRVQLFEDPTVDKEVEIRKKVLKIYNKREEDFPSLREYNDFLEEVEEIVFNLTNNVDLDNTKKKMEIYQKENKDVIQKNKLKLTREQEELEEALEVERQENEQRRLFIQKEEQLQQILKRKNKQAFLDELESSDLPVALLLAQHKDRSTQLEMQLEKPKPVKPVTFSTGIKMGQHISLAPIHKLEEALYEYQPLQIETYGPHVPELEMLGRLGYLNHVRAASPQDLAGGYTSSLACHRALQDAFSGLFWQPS
Experimental: as §3, with “PerkinElmer,” for “Perkin Elmer,”, “CDK7” for “CDK2”, “Carna Biosciences, Inc.,” for “Invitrogen Corp.,”, “04-108)” for “PV3267)”, “CDK7” for “500 μM [γ-^33P]ATP solution, the CDK2”
CDK7 enzyme reaction was performed by adding 5 μL of a test compound solution prepared with 10% DMSO/90% injectable distilled water, and 40 μL of the reaction solution to a 1.5 mL microtube at 4° C. and preincubating the microtube at 25° C. for 60 minutes in a water bath incubator. Subsequently, reaction was performed at 30° C. for 20 minutes by adding 5 μL of the 500 μM [γ-^33P]ATP solution. After the reaction, a 10% aqueous trichloroacetic acid (TCA) solution was added to each microtube while cooled to 4° C., and mixed in a vortex mixer to terminate the reaction. The resultant was left standing at 4° C. for 10 minutes and then centrifuged, and the supernatant was discarded. Next, a 2% aqueous trichloroacetic acid (TCA) solution was added thereto, mixed in a vortex mixer, and then centrifuged, and the supernatant was discarded. This washing operation was performed twice. After the washing, precipitates were dissolved in a 1 N aqueous sodium hydroxide (NaOH) solution, and the energy quantity (radioactivity) of the reaction product was measured with a liquid scintillation counter.
The calculation of the inhibitory activity of the test compound against CDK7 was performed as a test compound concentration inhibiting 50% of the amount of ^33P bound to MBP (IC50 value) by using EXSUS (version 8.1.0, manufactured by CAC Exicare Corp.).
as §2

[1] = tested on: human large intestine cancer cell line (HCT-116); test: Human large intestine cancer (HCT-116) cell growth inhibition test; assay type: cell-based; conditions: HCT-116, 72 h, culture for 3 days, sulforhodamine B, read-out: GI50 value, HCT-116 cell growth inhibition
Experimental: The measurement of a human large intestine cancer cell growth inhibitory effect was carried out by modifying the method of Simak et al. (Cancer Research, 69, 6208 (2009)).
A human large intestine cancer cell line (HCT-116, obtained from DS Pharma Biomedical Co., Ltd.) was cultured in a McCoy's 5A medium (manufactured by Thermo Fisher Scientific, Inc.) containing 10% fetal bovine serum (FBS) (manufactured by Thermo Fisher Scientific, Inc.) and 1% penicillin/streptomycin/amphotericin B (manufactured by Thermo Fisher Scientific, Inc.) and inoculated at 0.5 to 2.0×10^3 cells/well in a 96-well plate. After overnight culture in a carbon dioxide incubator, the medium was replaced with a fresh medium on the next day, and a test compound dissolved in DMSO (final DMSO concentration: 0.1%) was added thereto and left standing in a carbon dioxide incubator. After culture for 3 days, the absorbance thereof was measured by using In Vitro Toxicology Assay Kit Sulforhodamine B based (manufactured by Sigma-Aldrich Co. LLC.).
The rate of inhibition of cell growth at each concentration was calculated from the test compound concentration and the absorbance of sulforhodamine B, and the concentration of the test compound necessary for inhibiting 50% of cell growth (GI50 value) was calculated by using EXSUS (version 8.1.0, manufactured by CAC Exicare Corp.).

T1 sequence (P53350 whole entry): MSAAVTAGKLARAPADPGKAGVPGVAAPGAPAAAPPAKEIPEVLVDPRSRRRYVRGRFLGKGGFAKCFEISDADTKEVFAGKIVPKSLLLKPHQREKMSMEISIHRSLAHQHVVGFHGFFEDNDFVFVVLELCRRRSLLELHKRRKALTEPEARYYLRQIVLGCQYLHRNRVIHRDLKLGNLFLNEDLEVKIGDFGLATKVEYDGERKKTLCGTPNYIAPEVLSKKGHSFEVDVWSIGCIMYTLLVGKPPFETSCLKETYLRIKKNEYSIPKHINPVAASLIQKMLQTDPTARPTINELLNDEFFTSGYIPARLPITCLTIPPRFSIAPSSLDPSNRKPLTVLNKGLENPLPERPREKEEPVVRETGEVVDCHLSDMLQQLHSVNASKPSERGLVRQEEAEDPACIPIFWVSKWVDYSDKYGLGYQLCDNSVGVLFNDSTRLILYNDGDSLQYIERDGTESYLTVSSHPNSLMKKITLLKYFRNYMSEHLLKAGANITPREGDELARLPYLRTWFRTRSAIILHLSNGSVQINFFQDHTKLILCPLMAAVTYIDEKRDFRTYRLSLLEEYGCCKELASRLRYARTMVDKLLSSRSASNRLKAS

Compound | Ki (PLK1) [nM] | Ki (CDK2) [nM] | Ki (CDK7) [nM] | GI50 [1] [nM]
CC1(C)c2[nH]nc(NC(=O)C3([Si](C)(C)C)CCC3)c2CN1C(=O)N1CCc2ccccc21 [I-1000, N-[5-(Indoline-1-carbonyl)-6,6-dimethyl-1,4,5,6-tetrahydropyrrolo[3,4-c]pyrazol-3-yl]-1-(trimethylsilyl)cyclobutanecarboxamide] | ≥ 5000 | ≥ 1000 |  | 
CC1(C)c2[nH]nc(NC(=O)C3([Si](C)(C)C)CCC3)c2CN1C(=O)Nc1ccccc1Cl [IV-9, N-(2-Chlorophenyl)-6,6-dimethyl-3-[1-(trimethylsilyl)cyclobutanecarboxamido]-4,6-dihydropyrrolo[3,4-c]pyrazole-5(1H)-carboxamide] |  | ≥ 1000 | ≤ 50 | ≤ 100
COc1ccccc1NC(=O)N1Cc2c(NC(=O)C3([Si](C)(C)C)CCC3)n[nH]c2C1(C)C [IV-75, N-(2-Methoxyphenyl)-6,6-dimethyl-3-[1-(trimethylsilyl)cyclobutanecarboxamido]-4,6-dihydropyrrolo[3,4-c]pyrazole-5(1H)-carboxamide] |  | ≥ 1000 | ≤ 50 | ≤ 100
CC1(C)c2[nH]nc(NC(=O)C3([Si](C)(C)C)CCC3)c2CN1C(=O)Nc1ccc(F)cc1F [IV-101, N-(2,4-Difluorophenyl)-6,6-dimethyl-3-[1-(trimethylsilyl)cyclobutanecarboxamido]-4,6-dihydropyrrolo[3,4-c]pyrazole-5(1H)-carboxamide] |  |  | ≤ 50 | ≤ 100
CC1(C)c2[nH]nc(NC(=O)C3([Si](C)(C)C)CCC3)c2CN1C(=O)Nc1cc(F)ccc1F [IV-103, N-(2,5-Difluorophenyl)-6,6-dimethyl-3-[1-(trimethylsilyl)cyclobutanecarboxamido]-4,6-dihydropyrrolo[3,4-c]pyrazole-5(1H)-carboxamide] |  |  | ≤ 50 | ≤ 100
CC1(C)c2[nH]nc(NC(=O)C3([Si](C)(C)C)CCC3)c2CN1C(=O)Nc1cc(Cl)ccc1F [IV-111, N-(5-Chloro-2-fluorophenyl)-6,6-dimethyl-3-[1-(trimethylsilyl)cyclobutanecarboxamido]-4,6-dihydropyrrolo[3,4-c]pyrazole-5 (1H)-carboxamide] |  |  | ≤ 50 | ≤ 100
Cc1ccc(NC(=O)N2Cc3c(NC(=O)C4([Si](C)(C)C)CCC4)n[nH]c3C2(C)C)c(F)c1 [IV-125, N-(2-Fluoro-4-methylphenyl)-6,6-dimethyl-3-[1-(trimethylsilyl)cyclobutanecarboxamido]-4,6-dihydropyrrolo[3,4-c]pyrazole-5 (1H)-carboxamide] |  |  | ≤ 50 | ≤ 100
CC1(C)c2[nH]nc(NC(=O)C3([Si](C)(C)C)CCC3)c2CN1C(=O)Nc1c(F)cccc1C(F)(F)F [IV-153, N-[2-Fluoro-6-(trifluoromethyl)phenyl]-6,6-dimethyl-3-[1-(trimethylsilyl)cyclobutanecarboxamido]-4,6-dihydropyrrolo[3,4-c]pyrazole-5(1H)-carboxamide] | ≥ 5000 |  | ≤ 50 | ≤ 100
Cc1cccc(NC(=O)N2Cc3c(NC(=O)C4([Si](C)(C)C)CCC4)n[nH]c3C2(C)C)c1C [IV-375, N-(2,3-Dimethylphenyl)-6,6-dimethyl-3-[1-(trimethylsilyl)cyclobutanecarboxamido]-4,6-dihydropyrrolo[3,4-c]pyrazole-5(1H)-carboxamide] |  |  | ≤ 50 | ≤ 100
CC1(C)c2[nH]nc(NC(=O)C3([Si](C)(C)C)CCC3)c2CN1C(=O)Nc1c(F)cc(F)cc1F [IV-599, 6,6-Dimethyl-N-(2,4,6-trifluorophenyl)-3-[1-(trimethylsilyl)cyclobutanecarboxamido]-4,6-dihydropyrrolo[3,4-c]pyrazole-5(1H)-carboxamide] |  |  | ≤ 50 | ≤ 100
Cc1nscc1NC(=O)N1Cc2c(NC(=O)C3([Si](C)(C)C)CCC3)n[nH]c2C1(C)C [IV-1035, 6,6-Dimethyl-N-(3-methylisothiazol-4-yl)-3-[1-(trimethylsilyl)cyclobutanecarboxamido]-4,6-dihydropyrrolo[3,4-c]pyrazole-5 (1H)-carboxamide] |  |  | ≤ 50 | ≤ 100
